Experimental data from US20260317309A1, “N-HETEROCYLIC GPCR RECEPTOR AGONISTS, PHARMACEUTICAL COMPOSITIONS COMPRISING THE SAME, AND METHODS FOR THEIR USE” (Carmot Therapeutics, Inc., priority 2022, published 2026).

Biological target: T1, human GLP-1 receptor (Homo sapiens, UniProt P43220)
T1 construct: expressed in transfected cells
Assay: GLP-1R cAMP assay (cAMP accumulation in CHO cells stably overexpressing the human GLP-1 receptor, HitHunter kit)
Assay type: cell-based
Conditions: CHO cells stably overexpressing human GLP-1R, 30 min, 20-point dose response in triplicate
Description: CAMP accumulation was measured in Chinese hamster ovary (CHO) cells (10,000 cells/well) stably overexpressing the human GLP-1 receptor using the HitHunter CAMP Assay for Small Molecules Kit (Eurofins). Briefly, cells were grown in Ham's F12 Nutrient Mix with 10% FBS, and lifted with Cell Dissociation Buffer, Enzyme free, PBS based (ThermoFisher). Cells were pelleted, and resuspended in Hank's buffered saline solution with 10 mM HEPES, and 625 μM 3-isobutyl-1-methylxanthine. The anti-cAMP antibody reagent was then added to cells at a 1:2 ratio and 5 μL of mixture was seeded in 384-well small volume white assay plates, at 10,000 cells/well. Cells were then treated with 50 nL compound using an ECHO 550 acoustic dispenser (Labcyte) in a 20-point dose response format in triplicate for 30 min. Cells were then lysed, and detection reagents added according to the manufacturer's protocol. After overnight incubation, luminescence was measured using a Perkin Elmer Envision plate reader. Dose response curves were analyzed using GraphPad Prism 9.0.
In the Table, EC50 values are designated as follows: • A: 0 nM<EC50<0.1 nM; • B: 0.1 nM≤EC50<1.0 nM; • C: 1.0 nM≤EC50<10.0 nM; • D: 10.0 nM≤EC50<100 nM; • E: 100 nM≤EC50<500 nM; and • F: ≥500 nM

T1 sequence (P43220 24-463): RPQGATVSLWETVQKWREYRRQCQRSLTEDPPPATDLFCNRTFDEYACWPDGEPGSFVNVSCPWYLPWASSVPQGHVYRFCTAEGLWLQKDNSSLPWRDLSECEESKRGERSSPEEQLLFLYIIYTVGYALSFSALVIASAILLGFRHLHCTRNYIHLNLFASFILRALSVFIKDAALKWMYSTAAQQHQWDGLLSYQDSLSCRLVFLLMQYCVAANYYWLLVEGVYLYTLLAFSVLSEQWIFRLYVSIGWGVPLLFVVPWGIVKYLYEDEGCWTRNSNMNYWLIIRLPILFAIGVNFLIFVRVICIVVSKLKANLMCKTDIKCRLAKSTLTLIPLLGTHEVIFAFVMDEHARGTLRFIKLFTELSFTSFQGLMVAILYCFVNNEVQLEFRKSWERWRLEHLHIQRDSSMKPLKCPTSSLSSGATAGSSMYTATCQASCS

SMILES | EC50 [nM]
C[C@H]1C[C@@H](Oc2ccnc(COc3ccc(F)cc3C#N)n2)CCN1Cc1nc2ccc(C(=O)NO)cc2n1C[C@@H]1CCO1 [Compound 560, 2-{[(2S,4S)-4-({2-[(2-Cyano-4-fluorophenoxy)methyl]pyrimidin-4-yl}oxy)-2-methylpiperidin-1-yl]methyl}-N-hydroxy-1-{[(2S)-oxetan-2-yl]methyl}-1H-1,3-benzodiazole-6-carboxamide] | 0.1 to 1
C[C@H]1C[C@@H](Oc2ccnc(COc3ccc(F)cc3F)n2)CCN1Cc1nc2ccc(C(=O)NS(C)(=O)=O)cc2n1C[C@@H]1CCO1 [Compound 563, 2-(((2S,4S)-4-((2-((2,4-Difluorophenoxy)methyl)pyrimidin-4-yl)oxy)-2-methylpiperidin-1-yl)methyl)-N-(methylsulfonyl)-1-(((S)-oxetan-2-yl)methyl)-1H-benzo[d]imidazole-6-carboxamide] | 0.1 to 1
C[C@H]1C[C@@H](Oc2ccnc(COc3ccc(F)cc3F)n2)CCN1Cc1nc2ccc(C(=O)NS(=O)(=O)C3CC3)cc2n1C[C@@H]1CCO1 [Compound 564, N-(Cyclopropanesulfonyl)-2-{[(2S,4S)-4-({2-[(2,4-difluorophenoxy)methyl]pyrimidin-4-yl}oxy)-2-methylpiperidin-1-yl]methyl}-1-{[(2S)-oxetan-2-yl]methyl}-1H-1,3-benzodiazole-6-carboxamide] | 0.1 to 1
CC(c1nc2ccc(C(=O)O)cc2n1C[C@@H]1CCO1)N1CCC(Oc2ccnc(COc3ccc(F)cc3F)n2)CC1 (stereo partly drawn) [Compound 565, 2-(1-(4-((2-((2,4-Difluorophenoxy)methyl)pyrimidin-4-yl)oxy)piperidin-1-yl)ethyl)-1-(((S)-oxetan-2-yl)methyl)-1H-benzo[d]imidazole-6-carboxylic acid] | 1 to 10
C[C@H]1C[C@@H](Oc2ccnc(COc3ncc(F)cc3F)n2)CCN1Cc1nc2ccc(C(=O)O)cc2n1C[C@@H]1CCO1 [Compound 566, 2-{[(2S,4S)-4-[(2-{[(3,5-Difluoropyridin-2-yl)oxy]methyl}pyrimidin-4-yl)oxy]-2-methylpiperidin-1-yl]methyl}-1-{[(2S)-oxetan-2-yl]methyl}-1H-1,3-benzodiazole-6-carboxylic acid] | 0.1 to 1
C[C@H]1C[C@@H](Oc2ccnc(COc3ccc(C#N)cn3)n2)CCN1Cc1nc2ccc(C(=O)O)cc2n1C[C@@H]1CCO1 [Compound 567, 2-{[(2S,4S)-4-[(2-{[(5-Cyanopyridin-2-yl)oxy]methyl}pyrimidin-4-yl)oxy]-2-methylpiperidin-1-yl]methyl}-1-{[(2S)-oxetan-2-yl]methyl}-1H-1,3-benzodiazole-6-carboxylic acid] | 0.1 to 1
N#Cc1ccc(OCc2nccc(OC3CCC4(CC3)CC4c3nc4ccc(C(=O)O)cc4n3C[C@@H]3CCO3)n2)c(F)c1 (stereo partly drawn) [Compound 571, 2-(6-((2-((4-Cyano-2-fluorophenoxy)methyl)pyrimidin-4-yl)oxy)spiro[2.5]octan-1-yl)-1-(((S)-oxetan-2-yl)methyl)-1H-benzo[d]imidazole-6-carboxylic acid] | 10 to 100
C[C@H]1C[C@@H](Oc2ccnc(COc3ccc(F)cc3F)n2)CCN1Cc1nc2cc(F)c(C(=O)O)cc2n1C[C@@H]1CCO1 [Compound 572, 2-{[(2S,4S)-4-({2-[(2,4-di-fluorophenoxy)methyl]pyrimidin-4-yl}oxy)-2-methylpiperidin-1-yl]methyl}-5-fluoro-1-{[(2S)-oxetan-2-yl]methyl}-1H-1,3-benzodiazole-6-carboxylic acid] | 0.1 to 1
C[C@H]1C[C@@H](Oc2ccnc(COc3ccc(F)cc3C#N)n2)CCN1Cc1nc2ccc(C(=O)O)c(F)c2n1C[C@@H]1CCO1 [Compound 573, 2-{[(2S,4S)-4-({2-[(2-cyano-4-fluorophenoxy)methyl]pyrimidin-4-yl}oxy)-2-methylpiperidin-1-yl]methyl}-7-fluoro-1-{[(2S)-oxetan-2-yl]methyl}-1H-1,3-benzodiazole-6-carboxylic acid] | < 0.1
C[C@H]1C[C@@H](Oc2ccnc(COc3ccc(F)cc3C#N)n2)CCN1Cc1nc2cnc(C(=O)O)cc2n1C[C@@H]1CCO1 [Compound 574, 2-{[(2S,4S)-4-({2-[(2-cyano-4-fluorophenoxy)methyl]pyrimidin-4-yl}oxy)-2-methylpiperidin-1-yl]methyl}-1-{[(2S)-oxetan-2-yl]methyl}-1H-imidazo[4,5-c]pyridine-6-carboxylic acid] | 1 to 10
C[C@H]1C[C@@H](Oc2ccnc(COc3ccc(F)cc3F)n2)CCN1Cc1nc2c(F)cc(C(=O)O)cc2n1C[C@@H]1CCO1 [Compound 576, 2-{[(2S,4S)-4-({2-[(2,4-di-fluorophenoxy)methyl]pyrimidin-4-yl}oxy)-2-methylpiperidin-1-yl]methyl}-4-fluoro-1-{[(2S)-oxetan-2-yl]methyl}-1H-1,3-benzodiazole-6-carboxylic acid] | < 0.1
N#Cc1ccc(OCc2nccc(OC3CCN(Cc4nc5cnc(C(=O)O)cc5n4C[C@@H]4CCO4)CC3)n2)c(F)c1 [Compound 580, 2-{[4-({2-[(4-Cyano-2-fluorophenoxy)methyl]pyrimidin-4-yl}oxy)piperidin-1-yl]methyl}-1-{[(2S)-oxetan-2-yl]methyl}-1H-imidazo[4,5-c]pyridine-6-carboxylic acid] | 1 to 10
C[C@H]1C[C@@H](Oc2nc(COc3ccc(F)cc3F)ncc2F)CCN1Cc1nc2ccc(C(=O)O)cc2n1C[C@@H]1CCO1 [Compound 581, 2-{[(2S,4S)-4-({2-[(2,4-difluorophenoxy)methyl]-5-fluoropyrimidin-4-yl}oxy)-2-methylpiperidin-1-yl]methyl}-1-{[(2S)-oxetan-2-yl]methyl}-1H-1,3-benzodiazole-6-carboxylic acid] | < 0.1

More lines, now with the values ahead:

EC50 [nM] | SMILES
0.1 to 1 | C[C@H]1C[C@@H](Oc2ccnc(COc3ccc(F)cc3F)n2)CCN1Cc1nc2ccc(C(=O)NO)cc2n1C[C@@H]1CCO1 [Compound 559, 2-(((2S,4S)-4-((2-((2,4-Difluorophenoxy)methyl)pyrimidin-4-yl)oxy)-2-methylpiperidin-1-yl)methyl)-N-hydroxy-1-(((S)-oxetan-2-yl)methyl)-1H-benzo[d]imidazole-6-carboxamide]
0.1 to 1 | C[C@H]1C[C@@H](Oc2ccnc(COc3ccc(F)cc3C#N)n2)CCN1Cc1nc2ccc(C(=O)O)cc2n1C[C@H]1CCO1 [Compound 561, 2-{[(2S,4S)-4-({2-[(2-cyano-4-fluorophenoxy)methyl]pyrimidin-4-yl}oxy)-2-methylpiperidin-1-yl]methyl}-1-{[(2R)-oxetan-2-yl]methyl}-1H-1,3-benzodiazole-6-carboxylic acid]
0.1 to 1 | C[C@H]1C[C@@H](Oc2ccnc(COc3ccc(F)cc3F)n2)CCN1Cc1nc2ccc(C(=O)O)cc2n1C[C@H]1CCO1 [Compound 562, 2-{[(2S,4S)-4-({2-[(2,4-difluorophenoxy)methyl]pyrimi-din-4-yl}oxy)-2-methylpiperi-din-1-yl]methyl}-1-{[(2R)-oxe-tan-2-yl]methyl}-1H-1,3-benzo-diazole-6-carboxylic acid]
0.1 to 1 | C[C@H]1C[C@@H](Oc2ccnc(COc3ccc(F)cc3F)n2)CCN1Cc1nc2ccc(C(=O)O)cc2n1CC12CC(CO1)C2 [Compound 570, 2-{[(2S,4S)-4-({2-[(2,4-Difluorophenoxy)methyl]pyrimidin-4-yl}oxy)-2-methylpiperidin-1-yl]methyl}-1-({2-oxabicyclo[2.1.1]hexan-1-yl}methyl)-1H-1,3-benzodiazole-6-carboxylic acid]
0.1 to 1 | C[C@H]1C[C@@H](Oc2ccnc(COc3ccc(F)cc3F)n2)CCN1Cc1nc2ccc(C(=O)O)cc2n1C[C@H]1CCOC1 [Compound 575, 2-{[(2S,4S)-4-({2-[(2,4-Difluorophenoxy)methyl]pyrimidin-4-yl}oxy)-2-methylpiperidin-1-yl]methyl}-1-{[(3R)-oxolan-3-yl]methyl}-1H-1,3-benzodiazole-6-carboxylic acid]
0.1 to 1 | CO[C@H]1COC[C@H]1n1c(CN2CC[C@H](Oc3ccnc(COc4ccc(F)cc4F)n3)C[C@@H]2C)nc2ccc(C(=O)O)cc21 [Compound 577, 2-(((2S,4S)-4-((2-((2,4-Difluorophenoxy)methyl)pyrimidin-4-yl)oxy)-2-methylpiperidin-1-yl)methyl)-1-((3R,4R)-4-methoxytetrahydrofuran-3-yl)-1H-benzo[d]imidazole-6-carboxylic acid]
0.1 to 1 | C[C@H]1C[C@@H](Oc2ccnc(COc3ccc(C#N)cc3F)n2)CCN1Cc1nc2ccc(C(=O)O)cc2n1C[C@@H]1CCOC1 [Compound 578, 2-{[(2S,4S)-4-({2-[(4-cyano-2-fluorophenoxy)methyl]pyrimidin-4-yl}oxy)-2-methylpiperidin-1-yl]methyl}-1-{[(3S)-oxolan-3-yl]methyl}-1H-1,3-benzodiazole-6-carboxylic acid]
0.1 to 1 | C[C@H]1C[C@@H](Oc2ccnc(COc3ccc(C#N)cc3F)n2)CCN1Cc1nc2ccc(C(=O)O)cc2n1C[C@@H]1CCCO1 [Compound 579, 2-{[(2S,4S)-4-({2-[(4-cyano-2-fluorophenoxy)methyl]pyrimidin-4-yl}oxy)-2-methylpiperidin-1-yl]methyl}-1-{[(2S)-oxolan-2-yl]methyl}-1H-1,3-benzodiazole-6-carboxylic acid]
